Assay results published in PubChem BioAssay AID1963438 (Molecular Pharmacology Branch, DTP, NCI, 2024).

Test system: NCI-H510 multicellular tumor spheroid growth, % test/control
Experiment: Anticancer human tumor NCI-H510 cell line growth inhibition [Asc];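 note: spheroids exposed to agents for 7 days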;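 for viability, T/C: 100% = DMSO vehicle control wells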
Conditions: for IC50: curve of first compound; for viability, T/C: stronger effect = lower value
How it was run: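 Complex spheroids combining tumor cells with HUVEC endothelial cells and human MSCs, at 37 degrees C, 5% CO2; agents tested alone or combined, half-log dilutions from at or near clinical Cmax, or 10 microM if Cmax unknown.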

Q: With `Cc1nc(N2CCC3(CC2)COC(C)C3N)c(CO)nc1Sc1ccnc(N)c1Cl` (stereo not given) + CCN1C(C(=O)NC23CCC(C(=O)O)(CC2)CC3)C(c2cccc(Cl)c2F)C2(C(=O)Nc3cc(Cl)ccc32)C12CCCCC2 as the molecule, how does the IC50 (second compound 0.03 µM) read?
A: > 3 µM

Q: What about the IC50 (second compound 0.0949 µM) of the same molecule?
A: > 3 µM

Q: What about the IC50 (second compound 0.3 µM) of the same molecule?
A: > 3 µM

Q: What about the IC50 (second compound 0.949 µM) of the same molecule?
A: > 3 µM

Q: And the IC50 (second compound 3 µM)?
A: > 3 µM

Q: What about the viability, T/C (second compound 0.03 µM, first compound 0.00949 µM) of the same molecule?
A: 103%

Q: And the viability, T/C (second compound 0.03 µM, first compound 0.03 µM)?
A: 119%

Q: And the viability, T/C (second compound 0.03 µM, first compound 0.0949 µM)?
A: 119%

Q: And the viability, T/C (second compound 0.03 µM, first compound 0.3 µM)?
A: 119%

Q: What about the viability, T/C (second compound 0.03 µM, first compound 0.949 µM) of the same molecule?
A: 114%

Q: And the viability, T/C (second compound 0.03 µM, first compound 3 µM)?
A: 95.9%

Q: What about the viability, T/C (second compound 0.0949 µM, first compound 0.00949 µM) of the same molecule?
A: 110%

Q: And the viability, T/C (second compound 0.0949 µM, first compound 0.03 µM)?
A: 91.5%

Q: And the viability, T/C (second compound 0.0949 µM, first compound 0.0949 µM)?
A: 123%

Q: What about the viability, T/C (second compound 0.0949 µM, first compound 0.3 µM) of the same molecule?
A: 102%

Q: What about the viability, T/C (second compound 0.0949 µM, first compound 0.949 µM) of the same molecule?
A: 104%

Q: And the viability, T/C (second compound 0.0949 µM, first compound 3 µM)?
A: 84.3%

Q: What about the viability, T/C (second compound 0.3 µM, first compound 0.00949 µM) of the same molecule?
A: 101%

Q: And the viability, T/C (second compound 0.3 µM, first compound 0.03 µM)?
A: 116%

Q: And the viability, T/C (second compound 0.3 µM, first compound 0.0949 µM)?
A: 104%

Q: What about the viability, T/C (second compound 0.3 µM, first compound 0.3 µM) of the same molecule?
A: 101%

Q: What about the viability, T/C (second compound 0.3 µM, first compound 0.949 µM) of the same molecule?
A: 110%

Q: What about the viability, T/C (second compound 0.3 µM, first compound 3 µM) of the same molecule?
A: 90.6%

Q: What about the viability, T/C (second compound 0.949 µM, first compound 0.00949 µM) of the same molecule?
A: 116%

Q: And the viability, T/C (second compound 0.949 µM, first compound 0.03 µM)?
A: 105%

Q: What about the viability, T/C (second compound 0.949 µM, first compound 0.0949 µM) of the same molecule?
A: 98.5%

Q: What about the viability, T/C (second compound 0.949 µM, first compound 0.3 µM) of the same molecule?
A: 96%

Q: And the viability, T/C (second compound 0.949 µM, first compound 0.949 µM)?
A: 91.9%

Q: And the viability, T/C (second compound 0.949 µM, first compound 3 µM)?
A: 102%

Q: What about the viability, T/C (second compound 3 µM, first compound 0.00949 µM) of the same molecule?
A: 99.9%

Q: And the viability, T/C (second compound 3 µM, first compound 0.03 µM)?
A: 97.5%

Q: What about the viability, T/C (second compound 3 µM, first compound 0.0949 µM) of the same molecule?
A: 102%

Q: What about the viability, T/C (second compound 3 µM, first compound 0.3 µM) of the same molecule?
A: 120%

Q: What about the viability, T/C (second compound 3 µM, first compound 0.949 µM) of the same molecule?
A: 88.2%

Q: What about the viability, T/C (second compound 3 µM, first compound 3 µM) of the same molecule?
A: 115%

Q: `C#Cc1c(F)ccc2cc(O)cc(-c3ncc4c(N5CC6CCC(C5)N6)nc(OCC56CCCN5CC(F)C6)nc4c3F)c12` (stereo not given) + Cc1c(S(C)(=O)=O)c(-c2cc(F)cc(N3CCN(c4ccc(NS(=O)(=O)c5ccc(NC(CCN6CCC(C(=O)OCCCP(=O)(O)O)CC6)CSc6ccccc6)c(S(=O)(=O)C(F)(F)F)c5)cc4)CC3)c2)c(-c2ccc(Cl)cc2)n1C(C)C was tested. Which IC50 (second compound 0.1 µM) did it give?
A: > 10 µM

Q: And the IC50 (second compound 0.316 µM)?
A: > 10 µM

Q: And the IC50 (second compound 1 µM)?
A: > 10 µM

Q: And the IC50 (second compound 3.16 µM)?
A: > 10 µM

Q: And the IC50 (second compound 10 µM)?
A: 6.6 µM

Q: What about the viability, T/C (second compound 0.1 µM, first compound 0.0316 µM) of the same molecule?
A: 119%

Q: What about the viability, T/C (second compound 0.1 µM, first compound 0.1 µM) of the same molecule?
A: 121%

Q: What about the viability, T/C (second compound 0.1 µM, first compound 0.316 µM) of the same molecule?
A: 103%

Q: What about the viability, T/C (second compound 0.1 µM, first compound 1 µM) of the same molecule?
A: 81.1%

Q: What about the viability, T/C (second compound 0.1 µM, first compound 3.16 µM) of the same molecule?
A: 93.4%

Q: What about the viability, T/C (second compound 0.1 µM, first compound 10 µM) of the same molecule?
A: 109%

Q: What about the viability, T/C (second compound 0.316 µM, first compound 0.0316 µM) of the same molecule?
A: 112%

Q: What about the viability, T/C (second compound 0.316 µM, first compound 0.1 µM) of the same molecule?
A: 104%

Q: What about the viability, T/C (second compound 0.316 µM, first compound 0.316 µM) of the same molecule?
A: 105%

Q: What about the viability, T/C (second compound 0.316 µM, first compound 1 µM) of the same molecule?
A: 91.7%

Q: And the viability, T/C (second compound 0.316 µM, first compound 3.16 µM)?
A: 89.9%

Q: And the viability, T/C (second compound 0.316 µM, first compound 10 µM)?
A: 73%

Q: And the viability, T/C (second compound 1 µM, first compound 0.0316 µM)?
A: 105%

Q: And the viability, T/C (second compound 1 µM, first compound 0.1 µM)?
A: 121%

Q: What about the viability, T/C (second compound 1 µM, first compound 0.316 µM) of the same molecule?
A: 119%

Q: And the viability, T/C (second compound 1 µM, first compound 1 µM)?
A: 109%

Q: What about the viability, T/C (second compound 1 µM, first compound 3.16 µM) of the same molecule?
A: 108%

Q: And the viability, T/C (second compound 1 µM, first compound 10 µM)?
A: 73%

Q: And the viability, T/C (second compound 3.16 µM, first compound 0.0316 µM)?
A: 108%

Q: And the viability, T/C (second compound 3.16 µM, first compound 0.1 µM)?
A: 101%

Q: What about the viability, T/C (second compound 3.16 µM, first compound 0.316 µM) of the same molecule?
A: 110%

Q: What about the viability, T/C (second compound 3.16 µM, first compound 1 µM) of the same molecule?
A: 115%

Q: What about the viability, T/C (second compound 3.16 µM, first compound 3.16 µM) of the same molecule?
A: 109%

Q: And the viability, T/C (second compound 3.16 µM, first compound 10 µM)?
A: 77%

Q: And the viability, T/C (second compound 10 µM, first compound 0.0316 µM)?
A: 102%

Q: And the viability, T/C (second compound 10 µM, first compound 0.1 µM)?
A: 89.3%

Q: What about the viability, T/C (second compound 10 µM, first compound 0.316 µM) of the same molecule?
A: 113%

Q: What about the viability, T/C (second compound 10 µM, first compound 1 µM) of the same molecule?
A: 70.3%

Q: And the viability, T/C (second compound 10 µM, first compound 3.16 µM)?
A: 74.3%

Q: What about the viability, T/C (second compound 10 µM, first compound 10 µM) of the same molecule?
A: 38.5%
